Holding throughout (type): cell-based
For experiment [1], the system named is Escherichia coli ATCC25922. The experiment in a line: Antibacterial activity, broth dilution MIC. Conditions: Escherichia coli, ATCC25922. Background: Dilution methods test growth across graded concentrations, often in twofold steps.
The subject of experiment [2] is human lung cancer cell line A549. In words: Cell toxicity assay, MTT. The following applies: Homo sapiens, A549, 24 h.
Experiment [3] concerns Cutibacterium acnes ATCC6919. The experiment in a line: Antibacterial activity, broth dilution MIC. The following applies: Cutibacterium acnes, ATCC6919.
The subject of experiment [4] is Candida albicans ATCC10231. In words: Antimicrobial activity, broth dilution MIC. Conditions: Candida albicans, ATCC10231.
Experiment [5] relates to human hepatocellular carcinoma cell line HepG2. The experiment in a line: Cell toxicity assay, MTT. The following applies: Homo sapiens, HepG2, 24 h.

In brackets after ≈: the same amount, converted by molar mass.

Regarding `O=C1CCC[C@@H]2[C@H]3CCCN4CCC[C@@H](CN12)[C@@H]34` [Matrine, reference compound], the minimum inhibitory concentration (MIC) is 50.3 mM (≈ 12.5 mg/mL) in experiment [1], 50.3 mM (≈ 12.5 mg/mL) in experiment [3] and 25.2 mM (≈ 6.26 mg/mL) in experiment [4]. The 50% inhibitory concentration (IC50) was found to be 11.8 mM in experiment [2] and 4.27 mM in experiment [5].

For orientation: MIC means the lowest concentration that inhibits growth of the organism. As usually defined, the IC50 is the concentration needed to halve the response being measured. Low values mean higher potency, high ones lower potency.
